Results published in patent US11712434B2, “Compound having anti-cancer effect, and preparation method therefor and use thereof” (3D MEDICINES (BEIJING) CO., LTD., priority 2016, dated 2023).
Blank lines part the entries; values can stand above or below the compound they belong to.

What was measured:
Assay in all cases: Cell proliferation assay (Alamar Blue)
Assay type in all cases: cell-based
22RV1 = 22RV1 tumor cell line, 6 days culture
Protocol: (§1) 1. Instruments and Materials • Thermo 311 CO2 incubator; Haier biosafety cabinet; Molecular Devices microplate reader; Xiangyi brand L530 desktop low speed centrifuge; Olympus IX51 inverted fluorescence microscope, DMEM, RPMI 1640, MEM, DMEM/F12 1:1 medium, Fetal bovine serum, 0.25% trypsin solution, phosphate buffer (Thermo Fisher Shanghai Co., Ltd.); sigma dimethyl sulfoxide (DMSO), resazurin; 54 commercial tumor cell lines (including 26 liver cancer cell lines). Experimental drugs: compounds 1-12 and active drug Linifanib; chemotherapeutic drug Doxorubicin (HY-15142; Shanghai Qianyuan Biomedical Technology Co., Ltd.).
(§2) 2. Experimental Methods • 2.1 Cultivation of Different Cell Lines • 54 cell lines were cultured in a culture medium containing fetal bovine serum and placed in a 5% CO2 incubator at 37° C. for incubation. The cells were all grown in an adherent state, and the growth was observed under an inverted microscope, and subculture was performed when the cell confluence rate reached 80%-90%. The proportion and quantity of passage were determined by experimental needs. The ratio of subculture of this cell line was generally 1:2^˜1:3. • 2.2 Inhibition Effect on the Proliferation of Different Tumor Cell Lines • Cell test: 54 cell lines in logarithmic growth phase were inoculated in 96-well culture plates at 500^˜1×10^4/well (the optimal seeding density of each cell line was determined in pre-experiment), After incubating at 37° C. for 4 h in a 5% CO2 humidification incubator, added 10 μL of compounds 1-12 or Linifanib to each well, and tested 9 drug concentration gradients for each compound (diluted from the highest concentration of the test by 3.16 times). The solubility of each compound was different at a starting concentration of 100 or 30 μM, respectively. The QC reference compound Doxorubicin was added simultaneously to each cell line test, and the final drug concentrations were 10, 3.16, 1, 0.31, 0.1, 0.03, 0.01, 0.003, and 0.001 μM, respectively. In addition, a positive control group (100% inhibition) and a negative control group (0% inhibition) were set at the same time. The drug group was repeated for 2 wells per concentration, and the positive control group and the negative control group were repeated for 6 wells. After the culture was continued for 6 days in the incubator, AlamarBlue test operation was followed; • AlamarBlue test procedure: Incubated with 10 μL of AlamarBlue reagent per well for 1-4 h, shook for 1-2 min, MD microplate reader EX: 560 nm, EM: 590 nm wavelength to measure fluorescence, recorded the results, calculated the cell inhibition rate of the compound of the invention. Cell inhibition rate (%)=(A0% inhibition−A administration)/(A0% inhibition−A100% inhibition)×100%, and then using the method of nonlinear regression using GraphPad Prism 5.0 or MATILAB software (usually using four parameters) to graph and obtain a drug dose response curve to obtain an IC50 value of the compound of the present invention acting on a cancer cell line.

Alexander cells = Alexander cells liver cancer cell line, 6 days culture
Protocol: as §1, §2

HEPG2 = HEPG2 liver cancer cell line, 6 days culture
Protocol: as §1, §2

HLF = HLF liver cancer cell line, 6 days culture
Protocol: as §1, §2

HT55 = HT55 tumor cell line, 6 days culture
Protocol: as §1, §2

HUH1 = HUH1 liver cancer cell line, 6 days culture
Protocol: as §1, §2

HUH6 = HUH6 liver cancer cell line, 6 days culture
Protocol: as §1, §2

HUH7 = HUH7 liver cancer cell line, 6 days culture
Protocol: as §1, §2

JHH1 = JHH1 liver cancer cell line, 6 days culture
Protocol: as §1, §2

JHH2 = JHH2 liver cancer cell line, 6 days culture
Protocol: as §1, §2

JHH6 = JHH6 liver cancer cell line, 6 days culture
Protocol: as §1, §2

JHH7 = JHH7 liver cancer cell line, 6 days culture
Protocol: as §1, §2

K562 = K562 tumor cell line, 6 days culture
Protocol: as §1, §2

KASUMI-1 = KASUMI-1 (leukemia cells), 6 days culture
Protocol: as §1, §2

LC-2-ad = LC-2-ad tumor cell line, 6 days culture
Protocol: as §1, §2

LNCAP-clone-FGC = LNCAP-clone-FGC tumor cell line, 6 days culture
Protocol: as §1, §2

MFM-223 = MFM-223 tumor cell line, 6 days culture
Protocol: as §1, §2

MG63 = MG63 tumor cell line, 6 days culture
Protocol: as §1, §2

NCI-H1703 = NCI-H1703 (lung cancer cells), 6 days culture
Protocol: as §1, §2

NCI-H2170 = NCI-H2170 tumor cell line, 6 days culture
Protocol: as §1, §2

NCI-H526 = NCI-H526 tumor cell line, 6 days culture
Protocol: as §1, §2

NCI-H716 = NCI-H716 tumor cell line, 6 days culture
Protocol: as §1, §2

SK-HEP-1 = SK-HEP-1 liver cancer cell line, 6 days culture
Protocol: as §1, §2

SNU387 = SNU387 liver cancer cell line, 6 days culture
Protocol: as §1, §2

SNU761 = SNU761 liver cancer cell line, 6 days culture
Protocol: as §1, §2

SNU886 = SNU886 liver cancer cell line, 6 days culture
Protocol: as §1, §2

SW620 = SW620 tumor cell line, 6 days culture
Protocol: as §1, §2

T.T = T.T tumor cell line, 6 days culture
Protocol: as §1, §2

IC50 (22RV1; Homo sapiens, 144 h): 11.5 µM
IC50 (HEPG2; Homo sapiens, 144 h): 3.86 µM
IC50 (HUH1; Homo sapiens, HuH-1, 144 h): 7.26 µM
IC50 (HUH6; Homo sapiens, HuH-6, 144 h): 79 µM
IC50 (HUH7; Homo sapiens, Huh-7, 144 h): 6.33 µM
IC50 (K562; Homo sapiens, 144 h): 29.5 µM
IC50 (LNCAP-clone-FGC; Homo sapiens, 144 h): 26.5 µM
IC50 (NCI-H1703; Homo sapiens, 144 h): 0.07 µM
IC50 (NCI-H2170; Homo sapiens, 144 h): 7.69 µM
IC50 (NCI-H526; Homo sapiens, 144 h): 11.3 µM
IC50 (NCI-H716; Homo sapiens, 144 h): 10.8 µM
IC50 (SK-HEP-1; Homo sapiens, SK-HEP1, 144 h): 31 µM
IC50 (SNU387; Homo sapiens, SNU-387, 144 h): 47.9 µM
IC50 (SNU761; 144 h): 19.5 µM
IC50 (SNU886; SNU-886, 144 h): 16.9 µM
IC50 (SW620; Homo sapiens, SW-620, 144 h): 6.81 µM
SMILES: Cc1ccc(F)c(NC(=O)Nc2ccc(-c3cccc4[nH]nc(NC(=O)C[C@H](N)C(=O)N[C@@H](CCC(=O)N[C@@H](CCC(=O)N[C@@H](CCC(=O)N[C@@H](CCC(=O)O)C(=O)O)C(=O)O)C(=O)O)C(=O)O)c34)cc2)c1 [Compound 2]
IC50 (Alexander cells; 144 h): 7.11 µM
IC50 (HLF; 144 h): 10.8 µM
IC50 (HT55; Homo sapiens, 144 h): 40.1 µM
IC50 (JHH1; 144 h): 33.9 µM
IC50 (JHH2; JHH-2, 144 h): 88.2 µM
IC50 (JHH6; 144 h): 10.9 µM
IC50 (JHH7; 144 h): 4.26 µM
IC50 (KASUMI-1; Homo sapiens, 144 h): 0.05 µM
IC50 (LC-2-ad; Homo sapiens, 144 h): 6.37 µM
IC50 (MFM-223; Homo sapiens, 144 h): 6.93 µM
IC50 (MG63; Homo sapiens, MG-63, 144 h): 5.49 µM
IC50 (T.T; Homo sapiens, TT, 144 h): 16.9 µM

IC50 (22RV1): 95.6 µM
IC50 (HEPG2): 9.27 µM
IC50 (HUH1): > 100 µM
IC50 (HUH6): > 100 µM
IC50 (HUH7): 40.6 µM
IC50 (K562): > 100 µM
IC50 (LNCAP-clone-FGC): 70.5 µM
IC50 (NCI-H1703): 0.25 µM
IC50 (NCI-H2170): 59.2 µM
IC50 (NCI-H526): > 100 µM
IC50 (NCI-H716): 35.5 µM
IC50 (SK-HEP-1): > 100 µM
IC50 (SNU387): > 100 µM
IC50 (SNU761): > 100 µM
IC50 (SNU886): 41.9 µM
IC50 (SW620): 55.6 µM
SMILES: Cc1ccc(F)c(NC(=O)Nc2ccc(-c3cccc4[nH]nc(NC(=O)CCCCCCCCCCCNC(=O)C[C@H](N)C(=O)O)c34)cc2)c1 [Compound 12]
IC50 (Alexander cells): 77.1 µM
IC50 (HLF): > 100 µM
IC50 (HT55): > 100 µM
IC50 (JHH1): > 100 µM
IC50 (JHH2): > 100 µM
IC50 (JHH6): 85.8 µM
IC50 (JHH7): 67.2 µM
IC50 (KASUMI-1): 0.49 µM
IC50 (LC-2-ad): 22.9 µM
IC50 (MFM-223): 53.4 µM
IC50 (MG63): > 100 µM
IC50 (T.T): > 100 µM
